Where two headings read alike, the source gives them in different places.
Columns and labels:
Test in all cases: Fluorimetric PPyrPM assay for group 1B PLA2 inhibition (Example 12)
Assay type in all cases: biochemical
[1] = molecular target: T1, human group 1B PLA2 (hps PLA2) (Homo sapiens, UniProt P04054); conditions: for inhibition at 15 µM: read-out: ILYPSA % inhibition at 15 μM hps PLA2
T1 construct: made in house; host or cells: E. coli
Source text: (§1) In this example, a fluorimetric assay procedure was used to evaluate the indole and indole-related compounds of the invention as inhibitors of group 1B phospholipase A2 (PLA2) from human, mouse and porcine. A description of this assay is found in articles: Leslie, C C and Gelb, M H (2004) Methods in Molecular Biology “Assaying phospholipase A2 activity”, 284:229-242; Singer, A G, et al. (2002) Journal of Biological Chemistry “Interfacial kinetic and binding properties of the complete set of human and mouse groups I, II, V, X, and XII secreted phospholipases A2”, 277:48535-48549, which are incorporated herein as references.
(§2) In general, this assay used a phosphatidylmethanol substrate with a pyrene fluorophore on the terminal end of the sn-2 fatty acyl chain. Without being bound by theory, close proximity of the pyrenes from neighboring phospholipids in a phospholipid vesicle caused the spectral properties to change relative to that of monomeric pyrene. Bovine serum albumin was present in the aqueous phase and captured the pyrene fatty acid when it is liberated from the glycerol backbone owing to the PLA2-catalyzed reaction. However, a potent inhibitor can inhibit the liberation of pyrene fatty acid from the glycerol backbone. […] The effect of a given inhibitor and inhibitor concentration on human, mouse and porcine phospholipase was determined.
(§3) Recombinant human and mouse group 1B PLA2 were cloned and expressed in E. coli as insoluble inclusion bodies. The inclusion bodies were isolated and purified by sonicating cell pellet in lysis buffer (50 mM Tris-HCl pH 7.0, 250 mM NaCl, 0.5% Triton 100), centrifugation at 12,000×g, and washing three times in washing buffer (20 mM Tris-HCl pH 7.0, 250 mM NaCl, 0.5% Triton 100). Then the inclusion bodies were dissolved in dissolving buffer (50 mM Tris-HCl pH 7.0, 250 mM NaCl, 6 M Guanidine-HCl, 1 mM DTT) and dialyzed four times against 10 volumes of refolding buffer (20 mM Tris-HCl pH 7.0, 250 mM NaCl, 0.5M Guanidine-HCl, 5% (w/w) Glycerol, 2 mM reduced glutathione and 0.4 mM oxidized glutathione) at 4° C. The correctly refolded proteins were concentrated using Amicon Stirred cell under nitrogen pressure (<70 psi) and dialyzed against 10 volumes of 50 mM Tris-HCl pH 7.0, 250 mM NaCl and 5% (w/w) glycerol. Human and mouse group 1B PLA2 were further purified by High S ion exchange and gel filtration columns.
(§4) The following reagents and equipments were obtained from commercial vendors: • 1. Porcine group 1B phospholipase A2 • 2. 1-hexadecanoyl-2-(1-pyrenedecanoyl)-sn-glycero-3-phosphomethanol (PPyrPM) • 3. Bovine serum albumin (BSA, fatty acid free) • 4. 2-Amino-2-(hydroxymethyl)-1,3-propanediol, hydrochloride (Tris-HCl) • 5. Calcium chloride • 6. Potassium chloride • 7. Solvents: DMSO, toluene, isopropanol, ethanol • 8. Molecular Devices SPECTRAmax microplate spectrofluorometer • 9. Costar 96 well black wall/clear bottom plate
(§5) The following reagents were prepared: • 10. PPyrPM stock solution (1 mg/ml) in toluene:isopropanol (1:1) • 11. ILY104 inhibitor stock solution (10 mM) in DMSO • 12. 3% (w/v) bovine serum albumin (BSA) • 13. Stock buffer: 50 mM Tris-HCl, pH 8.0, 50 mM KCl and 1 mM CaCl2
(§6) The following procedure was performed to evaluate the inhibitory potency of the evaluated compounds. • 14. An assay buffer was prepared by adding 3 ml 3% BSA to 47 ml stock buffer. • 15. Solution A was prepared by adding serially diluted inhibitors to the assay buffer. Inhibitors were three-fold diluted in stock buffer in a series of 8 from 15 uM. • 16. Solution B was prepared by adding human, mouse or porcine PLA2 to the assay buffer. This solution was prepared immediately before use to minimize enzyme activity loss. • 17. Solution C was prepared by adding 30 ul PPyrPM stock solution to 90 ul ethanol, and then all 120 ul of PPyrPM solution was transferred drop-wise over approximately 1 min to the continuously stirring 8.82 ml assay buffer to form a final concentration of 4.2 uM PPyrPM vesicle solution. • 18. […]

[2] = molecular target: T2, mouse group 1B PLA2 (mps PLA2) (Mus musculus, UniProt Q9Z0Y2); conditions: for inhibition at 15 µM: read-out: ILYPSA % inhibition at 15 μM mps PLA2
T2 construct: made in house; host or cells: E. coli
T2 sequence (Q9Z0Y2 23-146): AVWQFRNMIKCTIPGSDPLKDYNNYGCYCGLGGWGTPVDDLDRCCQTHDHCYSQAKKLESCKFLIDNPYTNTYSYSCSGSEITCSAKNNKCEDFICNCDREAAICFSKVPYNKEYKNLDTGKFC
Source text: as §1, §2, §3, §4, §5, §6

[3] = molecular target: T3, porcine group 1B PLA2 (pps PLA2) (Sus scrofa, UniProt P00592); conditions: porcine pancreas secreted PLA2; for IC50: read-out: ILYPSA IC50 pps PLA2
T3 construct: purchased
T3 sequence (P00592 23-146): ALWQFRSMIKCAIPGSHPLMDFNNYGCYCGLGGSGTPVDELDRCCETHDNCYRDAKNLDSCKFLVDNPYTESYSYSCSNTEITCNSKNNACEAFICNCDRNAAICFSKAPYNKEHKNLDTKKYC
Source text: as §1, §2, §4, §5
The following procedure was performed to evaluate the inhibitory potency of the evaluated compounds. • 14. An assay buffer was prepared by adding 3 ml 3% BSA to 47 ml stock buffer. • 15. Solution A was prepared by adding serially diluted inhibitors to the assay buffer. Inhibitors were three-fold diluted in stock buffer in a series of 8 from 15 uM. • 16. Solution B was prepared by adding human, mouse or porcine PLA2 to the assay buffer. This solution was prepared immediately before use to minimize enzyme activity loss. • 17. Solution C was prepared by adding 30 ul PPyrPM stock solution to 90 ul ethanol, and then all 120 ul of PPyrPM solution was transferred drop-wise over approximately 1 min to the continuously stirring 8.82 ml assay buffer to form a final concentration of 4.2 uM PPyrPM vesicle solution. • 18. The SPECTRAmax microplate spectrofluorometer was set at 37° C. • 19. 100 ul of solution A was added to each inhibition assay well of a costar 96 well black wall/clear bottom plate • 20. 100 ul of solution B was added to each inhibition assay well of a costar 96 well black wall/clear bottom plate. • 21. 100 ul of solution C was added to each inhibition assay well of a costar 96 well black wall/clear bottom plate. • 22. The plate was incubated inside the spectrofluorometer chamber for 3 min. • 23. The fluorescence was read using an excitation of 342 nm and an emission of 395 nm.
Evaluated compounds were tested in duplicate and their values were averaged to plot the inhibition curve and calculate the IC50. Compared to uninhibited controls, lower fluorescent signal at an emission of 395 nm in test reactions evidenced inhibition of PLA2. […] Compounds initially found to be active were repeated to confirm their inhibitory activity. […]

[4] = human pancreas secreted PLA2, read-out: ILYPSA IC50 hps PLA2
[5] = mouse pancreas secreted PLA2, read-out: ILYPSA IC50 mps PLA2

T1 sequence (P04054 23-148): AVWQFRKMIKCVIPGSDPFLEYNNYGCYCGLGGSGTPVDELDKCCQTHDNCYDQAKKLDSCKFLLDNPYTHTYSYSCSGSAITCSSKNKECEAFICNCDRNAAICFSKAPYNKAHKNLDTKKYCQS

Compound | IC50 [1, 4] [µM] | IC50 [2, 5] [µM] | IC50 [3] [µM] | IC50 [1] [µM] | IC50 [2] [µM] | inhibition at 15 µM ([1]; human pancreas secreted PLA2) [%] | inhibition at 15 µM ([2]; mouse pancreas secreted PLA2) [%] | inhibition at 15 µM ([3]; read-out: ILYPSA % inhibition at 15 μM pps PLA2, 15 μM) [%]
Cc1c(C(=O)C(N)=O)c2c(OCC(=O)O)cccc2n1CCCCCCCCCCCCSCCCCCCCCCCCCn1c(C)c(C(=O)C(N)=O)c2c(OCC(=O)O)cccc21 [IL-V-29, 2,2′-(1,1′-(12,12′-thiobis(dodecane-12,1-diyl))bis(3-(2-amino-2-oxoacetyl)-2-methyl-1H-indole-4,1-diyl))bis(oxy)diacetic acid] | 0.46 | 0.79 | 0.53 |  |  |  |  | 
Cc1c(C(=O)C(N)=O)c2c(OCC(=O)O)nccc2n1Cc1ccccc1-c1ccccc1 [ILY-II-4, (3-Aminooxalyl-1-biphenyl-2-ylmethyl-2-methyl-1H-pyrrolo[3,2-c]pyridin-4-yloxy)-acetic acid] |  |  | < 0.02 | 0.08 | 0.07 |  |  | 
Cc1c(C(=O)C(N)=O)c2c(OCC(=O)NS(C)(=O)=O)nccc2n1Cc1ccccc1 [ILY-II-7, 2-[1-Benzyl-4-(2-methanesulfonylamino-2-oxo-ethoxy)-2-methyl-1H-pyrrolo[3,2-c]pyridin-3-yl]-2-oxo-acetamide] | 2.07 | 1.05 | 0.04 |  |  |  |  | 
CCCCCCCCn1c(C)c(C(=O)C(N)=O)c2c(OCC(=O)O)nccc21 [ILY-II-8, (3-Aminooxalyl-2-methyl-1-octyl-1H-pyrrolo[3,2-c]pyridin-4-yloxy)-acetic acid] | 0.27 | 0.12 | 0.08 |  |  |  |  | 
CCc1c(C(=O)C(N)=O)c2c(OCC(=O)O)nccc2n1Cc1ccccc1 [ILY-II-9, 2-(3-(2-amino-2-oxoacetyl)-1-benzyl-2-ethyl-1H-pyrrolo[3,2-c]pyridin-4-yloxy)acetic acid] | 1.46 | 0.35 | 0.03 |  |  |  |  | 
CCC(Oc1nccc2c1c(C(=O)C(N)=O)c(C)n2Cc1ccccc1)C(=O)O (centres unmarked) [ILY-II-11, 2-(3-Aminooxalyl-1-benzyl-2-methyl-1H-pyrrolo[3,2-c]pyridin-4-yloxy)-butyric acid] |  |  | < 0.02 | 0.48 | 0.03 |  |  | 
Cc1c(C(=O)C(N)=O)c2c(OCC(=O)NC(CC(=O)O)C(=O)O)nccc2n1Cc1ccccc1 (centres unmarked) [ILY-II-12, 2-(2-(3-(2-amino-2-oxoacetyl)-1-benzyl-2-methyl-1H-pyrrolo[3,2-c]pyridin-4-yloxy)acetamido)succinic acid] |  |  | 3.71 |  |  | 16.6 | 35.7 | 
Cc1c(CC(N)=O)c2c(OCC(=O)O)cccc2n1Cc1ccccc1 [ILY-III-22, (1-Benzyl-3-carbamoylmethyl-2-methyl-1H-indol-4-yloxy)-acetic acid] | 1.32 | 0.89 |  |  |  |  |  | 
Cc1c(C(=O)C(N)=O)c2c(OCC(=O)O)c(Br)ccc2n1Cc1ccccc1 [ILY-IV-3, (3-Aminooxalyl-1-benzyl-5-bromo-2-methyl-1H-indol-4-yloxy)-acetic acid] |  |  | 5.87 |  |  | 35.8 | 39.8 | 
Cc1c(C(=O)C(N)=O)c2c(OC(C(=O)O)C(=O)O)cccc2n1Cc1ccccc1 [ILY-IV-8, 2-(3-Aminoooxalyl-1-benzyl-2-methyl-1H-indol-4-yloxy)-malonic acid] |  |  | 2.25 |  |  | 41 | 61.2 | 
Cc1c(C(=O)C(N)=O)c2c(OCC(=O)O)ccc(Br)c2n1Cc1ccccc1 [ILY-IV-9, (3-Aminooxalyl-1-benzyl-7-bromo-2-methyl-1H-indol-4-yloxy)-acetic acid] | 0.54 | 0.36 | 0.04 |  |  |  |  | 
CCC(Oc1cccc2c1c(C(=O)C(N)=O)c(C)n2Cc1ccccc1)C(=O)O (centres unmarked) [ILY-IV-20, 2-(3-Aminooxalyl-1-benzyl-2-methyl-1H-indol-4-yloxy)-butyric acid] |  | < 0.02 | < 0.02 | 0.18 |  |  |  | 
Cc1c(C(=O)C(N)=O)c2c(OCC(=O)NS(C)(=O)=O)cccc2n1Cc1ccccc1 [ILY-IV-21, 1-Benzyl-2-methyl-4-methanesulfonamidoylmethyloxy-1H-indol-3-glyoxylamide] | 1.16 | 0.32 | < 0.02 |  |  |  |  | 
Cc1c(C(=O)C(N)=O)c2c(OC(C(=O)O)C(C)C)cccc2n1Cc1ccccc1 (centres unmarked) [ILY-IV-22, 2-(3-Aminooxalyl-1-benzyl-2-methyl-1H-indol-4-yloxy)-3-methyl-butyric acid] | 0.07 | < 0.02 | < 0.02 |  |  |  |  | 
Cc1c(C(=O)C(N)=O)c2c(OC(F)C(=O)O)cccc2n1Cc1ccccc1 (centres unmarked) [ILY-IV-24, (3-Aminooxalyl-1-benzyl-2-methyl-1H-indol-4-yloxy)-fluoro-acetic acid] |  |  | 1.42 |  |  | 52.4 | 63.7 | 
Cc1ccc(S(=O)(=O)NC(=O)COc2cccc3c2c(C(=O)C(N)=O)c(C)n3Cc2ccccc2)cc1 [ILY-IV-26, 1-Benzyl-2-methyl-4-p-toluenesulfonamidoylmethyloxy-1H-indol-3-glyoxylamide] | > 5 | 3.09 | 0.08 |  |  |  |  | 
Cc1c(C(=O)C(N)=O)c2c(OC(F)C(N)=O)cccc2n1Cc1ccccc1 (centres unmarked) [ILY-IV-28, 2-(3-Aminooxalyl-1-benzyl-2-methyl-1H-indol-4-yloxy)-2-fluoro-acetamide] | 2.6 | 1.44 | 0.16 |  |  |  |  | 
Cc1c(C(=O)C(N)=O)c2c(OCC(=O)O)ccc([N+](=O)[O-])c2n1Cc1ccccc1 [ILY-IV-29] | 1.29 | 0.33 | 0.02 |  |  |  |  | 
Cc1c(C(=O)C(N)=O)c2c(OC(C(=O)O)c3ccccc3)cccc2n1Cc1ccccc1 (centres unmarked) [ILY-IV-32, (3-Aminooxalyl-1-benzyl-2-methyl-1H-indol-4-yloxy)-phenyl-acetic acid] |  |  |  |  |  | 41.7 | 47.5 | 38.5
